Measured values reported in patent publication US5840752A, “Reduction of hair growth” (priority 1996, dated 1998).

How the values were obtained:
[1] = tested on: hair growth of hamster flank organs; experiment: Golden Syrian hamster assay (flank organ hair mass); type: in vivo; details: topical, thirteen applications; for Hair Mass (mg) ± SEM, Treated: 10 μl once a day; for % Reduction (of hair growth): vs vehicle treated side
Text: Male intact Golden Syrian hamsters are considered acceptable models for human beard hair growth in that they display oval shaped flank organs, one on each side, each about 8 mm. in major diameter, which grow thick black and coarse hair similar to human beard hair. These organs produce hair in response to androgens in the hamster. To evaluate the effectiveness of a composition including an inhibitor of a cholesterol synthetic pathway enzyme, the flank organs of each of a group of hamsters are depilated by applying a thioglycolate based chemical depilatory (Surgex) and/or shaved. To one organ of each animal 10 μl. of vehicle alone once a day is applied, while to the other organ of each animal an equal amount of vehicle containing an inhibitor of a cholesterol synthetic pathway enzyme is applied. After thirteen applications (one application per day for five days a week), the flank organs are shaved and the amount of recovered hair (hair mass) from each is weighed. Percent-reduction of hair growth is calculated by subtracting the hair mass (mg) value of the test compound treated side from the hair mass value of the vehicle treated side; the delta value obtained is then divided by the hair mass value of the vehicle treated side, and the resultant number is multiplied by 100.
The above-described assay will be referred to herein as the "Golden Syrian hamster" assay.

HMG CoA reductase = experiment: HMGCoA reductase assay in extracts of hair follicles from hamster flank organ; type: biochemical; details: tested at 14 μM, 1 hour incubation
[2] = dose 10%, Vehicle A (40% acetone, 40% dipropylene glycol, 20% dimethyl sulfoxide)
[3] = dose 10%, Vehicle C (85% dimethyl sulfoxide, 10% benzyl alcohol, 5% NMP)
[4] = dose 5%, Vehicle C (85% dimethyl sulfoxide, 10% benzyl alcohol, 5% NMP)
[5] = dose 5%, Vehicle B (100% dimethyl sulfoxide)

CCC(C)(C)C(=O)O[C@H]1C[C@@H](C)C=C2C=C[C@H](C)[C@H](CC[C@@H]3C[C@@H](O)CC(=O)O3)[C@H]21 (relative stereo) [Simivistatin, 1S-[1α,3α,7β,8β(2S*,4S*),8aβ]]-1,2,3,7,8,8a-hexahydro-3,7-dimethyl-8-[2-tetrahydro-4-hydroxy-6-oxo-2H-pyran-2-yl)ethyl]-1-napthalenyl-2,2-dimethyl-butanoic acid]
Hair Mass (mg) ± SEM, Treated [1, 2]: 0.60 ± 0.11 mg | % Reduction (of hair growth) [1, 2]: 61 ± 7% | inhibition of HMG CoA reductase activity (HMG CoA reductase): 100%

CC(C)CCC[C@@H](C)[C@H]1CC[C@H]2[C@@H]3C(=O)C=C4C[C@@H](O)CC[C@]4(C)[C@H]3CC[C@]12C [7-Ketocholesterol, 5-cholesten-3β-Ol-7-one]
Hair Mass (mg) ± SEM, Treated [1, 3]: 1.01 ± 0.1 mg | % Reduction (of hair growth) [1, 3]: 54 ± 7%

C[C@H](CCCC(C)(C)O)[C@H]1CC[C@H]2[C@@H]3CC=C4C[C@@H](O)CC[C@]4(C)[C@H]3CC[C@]12C [25-Hydroxycholesterol, 25-hydroxycholesterol]
Hair Mass (mg) ± SEM, Treated [1, 4]: 1.04 ± 0.10 mg | % Reduction (of hair growth) [1, 4]: 17 ± 9%

CC[C@H](C)C(=O)O[C@H]1C[C@@H](C)C=C2C=C[C@H](C)[C@H](CC[C@@H]3C[C@@H](O)CC(=O)O3)[C@H]21 [Lovastatin, 1S-[1S-[1α(R*),3α,7β,8β(2S*,4S*),8αβ]]-1,2,3,7,8,8a-hexahydro-3,7-dimethyl-8-[2-(tetrahydro-4-hydroxy-6-oxo-2H-pyran-2-yl)ethyl]-1-naphthalenyl 2-methylbutanoate]
Hair Mass (mg) ± SEM, Treated [1, 2]: 0.81 ± 0.13 mg | % Reduction (of hair growth) [1, 2]: 63±4%

CC[C@H](C)C(=O)O[C@H]1CCC=C2C=C[C@H](C)[C@H](CC[C@@H]3C[C@@H](O)CC(=O)O3)[C@H]21 [Mevastatin, mevastatin]
Hair Mass (mg) ± SEM, Treated [1, 5]: 1.09 ± 0.07 mg | % Reduction (of hair growth) [1, 5]: 19 ± 7%
